Experimental data published in patent US20230131192A1, “1H-PYRAZOLO[4,3-d]PYRIMIDINE COMPOUNDS AS TOLL-LIKE RECEPTOR 7 (TLR7) AGONISTS” (BRISTOL-MYERS SQUIBB COMPANY, priority 2020, published 2023).

Key:
human TLR7 = molecular target: T1, human TLR7 (Homo sapiens, UniProt Q9NYK1); assay: Human TLR7 agonist (reporter) activity assay, HEK-Blue TLR7 cells, SEAP reporter; assay type: cell-based; conditions: 18 h treatment, average where assay was performed multiple times, read-out: hTLR7 Agonism EC50
T1 construct: host or cells: HEK-Blue TLR7 cells (engineered human embryonic kidney cells)
T1 sequence (Q9NYK1 27-1049): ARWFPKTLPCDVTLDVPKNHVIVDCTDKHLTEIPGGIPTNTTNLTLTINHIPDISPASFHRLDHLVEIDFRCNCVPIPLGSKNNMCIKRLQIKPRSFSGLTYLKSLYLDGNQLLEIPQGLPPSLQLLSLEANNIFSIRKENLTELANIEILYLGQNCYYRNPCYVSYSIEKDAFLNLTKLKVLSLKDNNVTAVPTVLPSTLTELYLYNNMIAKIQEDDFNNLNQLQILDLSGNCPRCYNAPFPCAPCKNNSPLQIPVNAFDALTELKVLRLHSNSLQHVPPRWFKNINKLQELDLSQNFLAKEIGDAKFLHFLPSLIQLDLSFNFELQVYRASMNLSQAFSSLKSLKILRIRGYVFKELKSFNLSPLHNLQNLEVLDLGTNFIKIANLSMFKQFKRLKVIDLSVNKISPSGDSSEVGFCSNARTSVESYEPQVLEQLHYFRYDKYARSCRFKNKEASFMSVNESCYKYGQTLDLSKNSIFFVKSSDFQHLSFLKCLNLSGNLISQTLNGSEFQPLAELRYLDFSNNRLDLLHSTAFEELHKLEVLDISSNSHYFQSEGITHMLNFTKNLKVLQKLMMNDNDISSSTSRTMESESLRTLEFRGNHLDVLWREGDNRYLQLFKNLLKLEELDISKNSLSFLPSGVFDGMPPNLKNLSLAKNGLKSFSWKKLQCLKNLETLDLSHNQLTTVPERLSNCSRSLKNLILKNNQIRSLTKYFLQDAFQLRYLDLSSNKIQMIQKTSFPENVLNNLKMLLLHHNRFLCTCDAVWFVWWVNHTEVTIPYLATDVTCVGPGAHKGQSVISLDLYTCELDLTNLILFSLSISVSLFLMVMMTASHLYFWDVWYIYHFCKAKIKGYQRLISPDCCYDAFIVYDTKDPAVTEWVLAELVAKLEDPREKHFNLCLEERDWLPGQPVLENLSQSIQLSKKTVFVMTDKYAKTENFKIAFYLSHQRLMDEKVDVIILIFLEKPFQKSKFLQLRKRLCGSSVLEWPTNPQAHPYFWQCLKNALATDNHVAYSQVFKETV
Experimental: This procedure describes a method for assaying human TLR7 (hTLR7) agonist activity of the compounds disclosed in this specification.
HEK-Blue™ TLR7 cells were added to each well of a 384-well tissue-culture plate (15,000 cells per well) and incubated 16-18 h at 37° C., 5% CO2. Compounds (100 nl) were dispensed into wells containing the HEK-Blue™ TLR cells and the treated cells were incubated at 37° C., 5% CO2. After 18 h treatment ten microliters of freshly-prepared Quanti-Blue™ reagent (Invivogen) was added to each well, incubated for 30 min (37° C., 5% CO2) and SEAP levels measured using an Envision plate reader (OD=620 nm). The half maximal effective concentration values (EC50; compound concentration which induced a response halfway between the assay baseline and maximum) were calculated.

CD69 = assay: Induction of CD69 in human whole blood; assay type: cell-based; conditions: 17 hrs, CD69 surface staining, 100% set to 1 uM of resiquimod, average where assay was performed multiple times, read-out: hWB CD69 EC50
Experimental: The induction of Type I interferon (IFN) MX-1 genes and the B-cell activation marker CD69 are downstream events that occur upon activation of the TLR7 pathway. The following is a human whole blood assay that measures their induction in response to a TLR7 agonist.
Heparinized human whole blood was harvested from human subjects and treated with test TLR7 agonist compounds at 1 mM. The blood was diluted with RPMI 1640 media and Echo was used to predot 10 nL per well giving a final concentration of 1 uM (10 nL in 10 uL of blood). After mixing on a shaker for 30 sec, the plates were covered and placed in a 37° C. chamber for o/n=17 hrs. Fixing/lysis buffer was prepared (5×→1× in H2O, warm at 37° C.; Cat # BD 558049) and kept the perm buffer (on ice) for later use.
For surface markers staining (CD69): prepared surface Abs: 0.045 ul hCD14-FITC (ThermoFisher Cat # MHCD1401)+0.6 ul hCD19-ef450 (ThermoFisher Cat #48-0198-42)+1.5 ul hCD69-PE (cat # BD555531)+0.855 ul FACS buffer. Added 3 ul/well, spin1000 rpm for 1 min and mixed on shaker for 30 sec, put on ice for 30 mins. Stop stimulation after 30 minutes with 70 uL of prewarmed 1× fix/lysis buffer and use Feliex mate to resuspend (15 times, change tips for each plate) and incubate at 37 C for 10 minutes.
Centrifuge at 2000 rpm for 5 minutes aspirate with HCS plate washer, mix on shaker for 30 sec and then wash with 70 uL in dPBS and pelleted 2×s (2000 rpm for 5 min) and 50 ul wash in FACS buffer pelleted 1×s(2000 rpm for 5 min). Mix on shaker for 30 sec. For Intracellular markers staining (MX-1): Add 50 ul of BD Perm buffer III and mix on shaker for 30 sec. Incubate on ice for 30 minutes (in the dark). Wash with 50 uL of FACS buffer 2× (spin @2300 rpm×5 min after perm) followed by mixing on shaker for 30 sec. Resuspended in 20 ul of FACS buffer containing MX1 antibody ( )(4812)-Alexa 647: Novus Biologicals #NBP2-43704AF647) 20 ul FACS bf+0.8 ul hlgG+0.04 ul MX-1. Spin 1000 rpm for 1 min, mix on shaker for 30se and the samples were incubated at RT in the dark for 45 minutes followed by washing 2×FACS buffer (spin @2300 rpm×5 min after perm). Resuspend 20 ul (35 uL total per well) of FACS buffer and cover with foil and place in 4° C. to read the following day. Plates were read on iQuePlus. The results were loaded into toolset and […] curves are generated in curve master. The y-axis 100% is set to 1 uM of resiquimod.

| SMILES | EC50 (human TLR7) | EC50 (CD69) |
| --- | --- | --- |
| COc1cc(CN2CCN(CCO)CC2)ccc1Cn1ncc2nc(N)nc(NCc3noc(C4CC4)n3)c21 [Compound 128, 2-[4-({4-[(5-amino-7-{[(5-cyclopropyl-1,2,4-oxadiazol-3-yl)methyl]amino}-1H-pyrazolo[4,3-d]pyrimidin-1-yl)methyl]-3-methoxyphenyl}methyl)piperazin-1-yl]ethan-1-ol] | 33.7 nM | 7.5 nM |
| COc1cc(CO)ccc1Cn1ncc2nc(N)nc(NCc3noc(C)n3)c21 [Compound 116, {4-[(5-amino-7-{[(5-methyl-1,2,4-oxadiazol-3-yl)methyl]amino}-1H-pyrazolo[4,3-d]pyrimidin-1-yl)methyl]-3-methoxyphenyl}methanol] | 729 nM | – |
| COc1cc(CN2CCN(C)CC2)ccc1Cn1ncc2nc(N)nc(NCc3noc(C4CC4)n3)c21 [Compound 129, N7-[(5-cyclopropyl-1,2,4-oxadiazol-3-yl)methyl]-1-({2-methoxy-4-[(4-methylpiperazin-1-yl)methyl]phenyl}methyl)-1H-pyrazolo[4,3-d]pyrimidine-5,7-diamine] | 47.8 nM | 5.3 nM |
| COc1cc(CN2CCN(CCO)CC2)ccc1Cn1nc(C)c2nc(N)nc(NCC[C@H](O)C3CC3)c21 [Compound 126, (1S)-3-({5-amino-1-[(4-{[4-(2-hydroxyethyl)piperazin-1-yl]methyl}-2-methoxyphenyl)methyl]-3-methyl-1H-pyrazolo[4,3-d]pyrimidin-7-yl}amino)-1-cyclopropylpropan-1-ol] | 740 nM | 25.3 nM |
| COc1cc(CN2CCN(S(C)(=O)=O)CC2)ccc1Cn1ncc2nc(N)nc(NCc3noc(C)n3)c21 [Compound 120, 1-({4-[(4-methanesulfonylpiperazin-1-yl)methyl]-2-methoxyphenyl}methyl)-N7-[(5-methyl-1,2,4-oxadiazol-3-yl)methyl]-1H-pyrazolo[4,3-d]pyrimidine-5,7-diamine] | 345 nM | 299 nM |
| COc1cc(CN2CC(OC)C2)ccc1Cn1ncc2nc(N)nc(NCc3noc(C)n3)c21 [Compound 118, 1-({2-methoxy-4-[(3-methoxyazetidin-1-yl)methyl]phenyl}methyl)-N7-[(5-methyl-1,2,4-oxadiazol-3-yl)methyl]-1H-pyrazolo[4,3-d]pyrimidine-5,7-diamine] | 47.9 nM | 4.3 nM |
| COc1cc(CNC2CCOCC2)ccc1Cn1ncc2nc(N)nc(N[C@H](CO)CC3CC3)c21 [Compound 108, (2S)-2-({5-amino-1-[(2-methoxy-4-{[(oxan-4-yl)amino]methyl}phenyl)methyl]-1H-pyrazolo[4,3-d]pyrimidin-7-yl}amino)-3-cyclopropylpropan-1-ol] | 342 nM | 119 nM |
| COc1cc(CN2CCN(CCO)CC2)ccc1Cn1ncc2nc(N)nc(NCc3cc(C)on3)c21 [Compound 105, 2-[4-({4-[(5-amino-7-{[(5-methyl-1,2-oxazol-3-yl)methyl]amino}-1H-pyrazolo[4,3-d]pyrimidin-1-yl)methyl]-3-methoxyphenyl}methyl)piperazin-1-yl]ethan-1-ol] | 23.4 nM | – |
| COc1cc(CN2CCN(CCO)CC2)ccc1Cn1nc(C)c2nc(N)nc(NCc3noc(C)n3)c21 [Compound 132, 2-[4-({4-[(5-amino-3-methyl-7-{[(5-methyl-1,2,4-oxadiazol-3-yl)methyl]amino}-1H-pyrazolo[4,3-d]pyrimidin-1-yl)methyl]-3-methoxyphenyl}methyl)piperazin-1-yl]ethan-1-ol] | 424 nM | – |

The remaining lines, values ahead:

| EC50 (human TLR7) | EC50 (CD69) | SMILES |
| --- | --- | --- |
| 57 nM | 9.5 nM | COc1cc(CN2CC(OC)C2)ccc1Cn1ncc2nc(N)nc(NCc3cc(C)on3)c21 [Compound 106, 1-({2-methoxy-4-[(3-methoxyazetidin-1-yl)methyl]phenyl}methyl)-N7-[(5-methyl-1,2-oxazol-3-yl)methyl]-1H-pyrazolo[4,3-d]pyrimidine-5,7-diamine] |
| 57.6 nM | 5.4 nM | COc1cc(CNC2CCOCC2)ccc1Cn1ncc2nc(N)nc(NCc3cc(C)on3)c21 [Compound 103, 1-[(2-methoxy-4-{[(oxan-4-yl)amino]methyl}phenyl)methyl]-N7-[(5-methyl-1,2-oxazol-3-yl)methyl]-1H-pyrazolo[4,3-d]pyrimidine-5,7-diamine] |
| 95.9 nM | 10.3 nM | COc1cc(CNC2CCOCC2)ccc1Cn1nc(C)c2nc(N)nc(NCc3cc(C)on3)c21 [Compound 112, 1-[(2-methoxy-4-{[(oxan-4-yl)amino]methyl}phenyl)methyl]-3-methyl-N7-[(5-methyl-1,2-oxazol-3-yl)methyl]-1H-pyrazolo[4,3-d]pyrimidine-5,7-diamine] |
| 159 nM | – | COc1cc(CN2CCN(C)CC2)ccc1Cn1nc(C)c2nc(N)nc(NCc3noc(C)n3)c21 [Compound 134, 1-({2-methoxy-4-[(4-methylpiperazin-1-yl)methyl]phenyl}methyl)-3-methyl-N7-[(5-methyl-1,2,4-oxadiazol-3-yl)methyl]-1H-pyrazolo[4,3-d]pyrimidine-5,7-diamine] |
| 1110 nM | – | COc1cc(CNC2CCOCC2)ccc1Cn1nc(C)c2nc(N)nc(NCc3noc(C)n3)c21 [Compound 133, 1-[(2-methoxy-4-{[(oxan-4-yl)amino]methyl}phenyl)methyl]-3-methyl-N7-[(5-methyl-1,2,4-oxadiazol-3-yl)methyl]-1H-pyrazolo[4,3-d]pyrimidine-5,7-diamine] |
| 338 nM | 75.4 nM | COc1cc(CNC2CCOCC2)ccc1Cn1ncc2nc(N)nc(NCC[C@H](O)C3CC3)c21 [Compound 109A, (1S)-3-({5-amino-1-[(2-methoxy-4-{[(oxan-4-yl)amino]methyl}phenyl)methyl]-1H-pyrazolo[4,3-d]pyrimidin-7-yl}amino)-1-cyclopropylpropan-1-ol] |
| 72.4 nM | 25.5 nM | COc1cc(CNC2CCOCC2)ccc1Cn1ncc2nc(N)nc(NCc3noc(C4CC4)n3)c21 [Compound 127, N7-[(5-cyclopropyl-1,2,4-oxadiazol-3-yl)methyl]-1-[(2-methoxy-4-{[(oxan-4-yl)amino]methyl}phenyl)methyl]-1H-pyrazolo[4,3-d]pyrimidine-5,7-diamine] |
